The results in this text go back to EPA's ToxValDB 9.5 (doi:10.2903/j.efsa.2006.59r).

In brackets after ≈: the same amount, converted by molar mass.

In one data set the test system is Daphnia magna. Particulars: chronic/long-term; duration: 21 days.
The subject of another data set is Tagia sp. Particulars: mortality.
Another data set deals with Orius insidiosus. As to conditions: acute, duration: 7 days.
A further data set concerns Apis mellifera. As to conditions: acute, mortality.
In the next data set the test system is Rattus norvegicus. Particulars: oral; for NOAEL: diet, neurology.

A word on the NOAEL: it is the highest dose or exposure tested at which no adverse effect was seen. For the compound `COP(=S)(OC)Oc1ccc([N+](=O)[O-])c(C)c1` [Fenitrothion], the NOEC in the data set on Daphnia magna turned out to be 0.087 µg/L; in the data set with Tagia sp. (chronic/long-term) it was 2.5 mg/kg; in the data set with Bird (reproductive), 2.34 mg/kg; with Oncorhynchus mykiss (chronic/long-term, duration: 96 days) it was 0.088 mg/L. For the same compound, the LC50 in the data set with Tagia sp. (acute) stood at 231 mg/kg; in the data set on Bird (short-term, oral, feed, mortality), 23 mg/kg; in the data set on Oncorhynchus mykiss (acute, duration: 96 hours, mortality) it was 1.3 µg/mL (≈ 4.69 µM). In addition, the LEL with Orius insidiosus (mortality) and in the data set with Orius insidiosus (reproduction) was 715 g/ha throughout. Besides, the LD50 in the data set on Apis mellifera (dermal) was found to be 0.16 µg/piece; in the data set with Apis mellifera (oral, unspecified) it was 0.2 µg/piece; in the data set with Bird (acute, oral, unspecified, mortality) it was 2.3 mg/kg-day; in the data set on Rattus norvegicus (acute, mortality), 330 mg/kg-day. Also, the NOAEL in the data set on Rattus norvegicus (chronic, duration: 2 years) came out at 0.5 mg/kg-day; in the data set with Rattus norvegicus (subchronic, duration: 90 days), 1.32 mg/kg-day.
